Data from publication PMC2119004 (The Journal of Experimental Medicine, 1991).
Ends that are not written are not given here.

Assays:
[1] = system: Bb-6 and Bd-l.4 T cell hybridomas; test: Stimulation of T cell hybridomas in the presence of live APC; format: cell-based, mouse; conditions: Fig. 2; for stimulation of T cells in the presence of live APC (in words): live TH2.2, serum-containing media, 24 h, HT-2 lymphokine assay
[2] = system: Bb-6 and Bd-l.4 T cell hybridomas; test: Stimulation of T cell hybridomas by fixed APC; format: cell-based, mouse; conditions: for requirement of DTT for presentation by fixed APC (in words): Fig. 4, fixed TH2.2, 18 h at 37°C, 0.15 M citrate/phosphate, pH 5 (A(1-14) forms) or pH 6 (sulfonated A chain), ± 2 mM DTT
[3] = system: I-Ab-restricted beef insulin-reactive T cell clones; conditions: large panel of I-Ab-restricted beef insulin-reactive T cell clones; cited from earlier work
[4] = system: Bb-6 T cell hybridoma (I-Ab-restricted); conditions: cited from earlier work
[5] = system: Bd-l.4 T cell hybridoma (I-Ad-restricted); conditions: cited from earlier work
I-Ed [6] = molecular target: T1, I-Ed (Mus musculus, UniProt P01904+P01915); test: Binding of alkylated HEL; conditions: data not shown
T1 sequence (P01904 whole entry, looked up): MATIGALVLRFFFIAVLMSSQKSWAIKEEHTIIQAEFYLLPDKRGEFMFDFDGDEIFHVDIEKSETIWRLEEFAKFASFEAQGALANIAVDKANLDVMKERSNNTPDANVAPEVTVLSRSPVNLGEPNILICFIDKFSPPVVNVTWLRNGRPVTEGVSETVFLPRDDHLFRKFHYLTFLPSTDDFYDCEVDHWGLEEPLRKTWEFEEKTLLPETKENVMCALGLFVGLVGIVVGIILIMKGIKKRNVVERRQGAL
T1 sequence (P01915 whole entry, looked up): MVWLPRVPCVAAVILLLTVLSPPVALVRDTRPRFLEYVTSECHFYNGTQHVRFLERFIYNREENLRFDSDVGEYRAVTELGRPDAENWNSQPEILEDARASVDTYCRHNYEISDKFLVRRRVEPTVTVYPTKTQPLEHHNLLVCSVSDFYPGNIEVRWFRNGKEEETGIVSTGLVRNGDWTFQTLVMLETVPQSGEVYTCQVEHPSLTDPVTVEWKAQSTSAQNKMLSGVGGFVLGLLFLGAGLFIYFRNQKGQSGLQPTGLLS

I-Ad [7] = molecular target: I-Ad (Mus musculus, UniProt P01921+P04228); test: Inhibition of biotin-Myo; format: binding; conditions: Fig. 7a; 1 mM DTT, 48 h
apamin-specific T cells = conditions: live APC; reduced and alkylated apamin; cited from earlier work
I-Ed [8] = molecular target: T1, I-Ed; test: Inhibition of biotin-HEL; format: binding; conditions: Fig. 8b; 2 µM biotin-HEL(104-120)
[9] = system: insulin-immune or A(1-14)-immune H-2d and H-2b lymph node lymphocytes; test: Lymph node proliferation assay; format: cell-based, mouse; conditions: Fig. 6a,b; INS-primed BALB/c or C57BL/10 (H-2d, H-2b); 4 d, [3H]thymidine
I-Ad [10] = molecular target: T2, I-Ad (Mus musculus, UniProt P01921+P04228); test: Binding of biotinylated insulin to purified I-Ad; conditions: preliminary, data not shown; absence of reduction
T2 sequence (P01921 whole entry, looked up): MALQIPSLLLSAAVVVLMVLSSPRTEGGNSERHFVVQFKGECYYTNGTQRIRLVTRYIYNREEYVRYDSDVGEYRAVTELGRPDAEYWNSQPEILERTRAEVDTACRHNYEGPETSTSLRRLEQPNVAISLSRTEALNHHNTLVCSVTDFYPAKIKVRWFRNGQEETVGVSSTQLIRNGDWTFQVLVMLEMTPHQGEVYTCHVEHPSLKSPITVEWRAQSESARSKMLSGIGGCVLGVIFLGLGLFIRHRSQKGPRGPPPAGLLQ
T2 sequence (P04228 whole entry, looked up): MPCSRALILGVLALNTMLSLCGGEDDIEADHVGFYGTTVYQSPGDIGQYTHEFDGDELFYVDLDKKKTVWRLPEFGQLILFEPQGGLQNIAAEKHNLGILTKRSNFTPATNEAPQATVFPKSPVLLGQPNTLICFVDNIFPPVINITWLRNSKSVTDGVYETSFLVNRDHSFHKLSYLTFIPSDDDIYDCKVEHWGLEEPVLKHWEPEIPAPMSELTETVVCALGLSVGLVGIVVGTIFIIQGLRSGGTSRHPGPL

Compound: Sulfonated A chain: sulfonated A chain of beef insulin purified from sulfonated insulin by reverse-phase HPLC
- fold lower concentration of intact insulin giving comparable stimulation ([1]; live APC, both I-Ab- and I-Ad-restricted T cells): 3-10 fold
- requirement of DTT for presentation by fixed APC (in words) [2]: in the presence, but not the absence, of DTT were capable of stimulating Bd-l.4 and Bb-6
- fraction of T cell clones responding to sulfonated A chain but not performic acid-oxidized insulin [3]: > 90%

Compound: pork insulin: pork insulin
- recognition by Bb-6 (in words) [4]: but not pork, insulin
- recognition by Bd-l.4 (in words) [5]: partiallycrossreactivewith pork insulin

Compound: GMNAWVAWRNRC- KGTDVY [HEL(104-120)]
- effect of sulfhydryl alkylation on binding to I-Ed (in words) (I-Ed [6]): does not affect its capacity to bind purified FEd

Compound: O[C@@H](CS)[C@@H](O)CS (racemic) [DTT, dithiothreitol]
- inhibition of peptide binding by DTT alone (in words) (I-Ad [7]): did not inhibit peptide binding

Compound: purified A chain from oxlNS: purified A chain from oxINS insulin
- stimulation of T cells in the presence of live APC (in words) [1]: do not stimulate these T cells

Compound: rcamlNS: reduced and carboxyamidomethylated beef insulin
- stimulation of T cells in the presence of live APC (in words) [1]: do not stimulate these T cells

Compound: INS: Beef insulin purchased from Elanco Products Co.
- molar excess of DTT to insulin disulfides at optimal response ([2]; Fig. 1b, fixed TH2.2, 33 µM INS): ~10 fold
- DTT concentration for optimal T cell responses ([2]; Fig. 1b, fixed TH2.2, 18 h at 37°C in PBS, 33 µM INS): 0.1 to 1 mM
- activation of T cells by fixed APC exposed to antigen and DTT (in words) ([2]; fixed TH2.2, overnight, 2 mM DTT): able to activate Bb-6 and Bd-l.4 T cells

Compound: air oxidized A(1-14): air-oxidized form of A(1-14) (GIVEQCCASVCSLY; disulfide (positions not given here); also: air-oxidized, interchain disulfides; UniProt P01317 85-98, looked up, fragment)
- requirement of DTT for presentation by fixed APC (in words) [2]: disulfide reduction was required for presentation

Compound: apamin
- T cells failing to recognize apamin after reduction and alkylation (apamin-specific T cells): 3/16

Compound: oxlNS: Performic acid-oxidized beef insulin
- stimulation of T cells in the presence of live APC (in words) [1]: do not stimulate these T cells

Compound: GIVEQCCASVCSLY [A(1-14)]
- stimulation of T cells in the presence of live APC (in words) [1]: essentially inactive
- potency relative to insulin/DTT with fixed APC (in words) ([2]; Fig. 3, fixed TH2.2): equivalent
- inhibition of biotin-HEL(104-120) binding to I-Ed (in words) (I-Ed [8]): only at relatively high

Compound: FVNQHLCGSHLVEALYLVCG- ERGFFYTPKA [B(1-30)]
- proliferation of beef insulin-immune lymphocytes (in words) [9]: but not to B chain

Compound: biotinylated insulin: biotinylated insulin
- binding of biotinylated insulin to I-Ad without reduction (in words) (I-Ad [10]): can bind to I-Ad
